Tests used:
MBD-1 [1] = test: MBD-1 production of epidermal keratinocytes cultured with recombinant CCL2 and/or IL-10; assay type: cell-based, mouse; conditions: recombinant CCL2 5 ng/ml and/or IL-10 1 ng/ml; 48 hours
Description: Epidermal keratinocytes (2×10^6 cells/ml) collected from the skin of a normal mouse were cultured at 37° C. in the co-presence of CCL2 (5 ng/ml) (Reference Example 18), IL-10 (1 ng/ml) (Reference Example 19), or CCL2 (5 ng/ml) and IL-10 (1 ng/ml) (Reference Example 20), which had been produced by a known recombinant DNA technology using a recombinant. The amount of MBD-1 in the supernatant of the culture fluid after 48 hours from the initiation of culture was measured by ELISA.

IL-10 = IL-10 production by Gr-1+CD11b+ cells (ELISA); assay type: cell-based, mouse; conditions: 10 μg/ml; 48 hours; vs no glycyrrhizin
Description: (§1) A normal mouse was given a burn injury on its dorsal side, and after 12 hours, Gr-1^+CD11b^+ cells (2×10^6 cells/ml) were collected from the skin tissue around the burn site. Using the keratinocyte culture medium as a medium, the Gr-1^+CD11b^+ cells were cultured in a 96-well plate at 37° C. in the co-present of glycyrrhizin in an amount of 10 μg/ml. After 48 hours from the initiation of culture, the amounts of CCL2 and IL-10 in the supernatant of the culture fluid were measured by ELISA. […] The experiment was carried out in the same manner as in Example 10, except that glycyrrhizin was not made to be co-present, and the amounts of CCL2 and IL-10 in the supernatant of the culture fluid were measured.

MBD-1 [2] = test: Amount of MBD-1 in culture supernatant of epidermal keratinocytes and/or Gr-1+CD11b+ cells (Transwell, ELISA); assay type: cell-based, mouse; conditions: 10 μg/ml, 48 hours
Description: Epidermal keratinocytes (EK) were collected from the skin of a normal mouse, and a cell solution was prepared to a concentration of 2×10^6 cells/ml using RPMI1640 medium supplemented with 10% inactivated fetal bovine serum. Furthermore, a normal mouse was given a burn injury on its dorsal side, and after 12 hours, Gr-1^+CD11b^+ cells were collected from the skin tissues around the burn site. A cell solution of the collected cells was prepared to a concentration of 5×10^5 cells/ml using RPMI1640 medium supplemented with 10% inactivated fetal bovine serum. In the co-presence of glycyrrhizin in an amount of 10 μg/ml, the epidermal keratinocytes and the Gr-1^+CD11b^+ cells were cultured in a same Transwell at 37° C. After 48 hours from the initiation of culture, the amount of MBD-1 in the supernatant of the culture fluid was measured by ELISA. The experiment was carried out in the same manner as in Example 4, except that glycyrrhizin was not allowed to be co-present, and the amount of MBD-1 in the supernatant of the culture fluid was measured. The experiment was carried out in the same manner as in Example 4, except that only epidermal keratinocytes (2×10^6 cells/ml) were cultured without allowing glycyrrhizin to be co-present, and the amount of MBD-1 in the supernatant of the culture fluid was measured. The experiment was carried out in the same manner as in Example 4, except that only epidermal keratinocytes (2×10^6 cells/ml) were cultured in the co-presence of glycyrrhizin in an amount of 10 μg/ml, and the amount of MBD-1 in the supernatant of the culture fluid was measured. The experiment was carried out in the same manner as in Example 4, except that only Gr-1^+CD11b^+ cells (5×10^5 cells/ml) were cultured without allowing glycyrrhizin to be co-present, and the amount of MBD-1 in the supernatant of the culture fluid was measured.

Pseudomonas aeruginosa [3] = test: Survival rate of burn-injured, Pseudomonas aeruginosa-administered mice; assay type: in vivo, mouse
Description: A normal mouse was given a burn injury on the dorsal side, and Pseudomonas aeruginosa was applied to the burn site in an amount of 100 CFU (Colony-Forming Units). Subsequently, glycyrrhizin was intraperitoneally administered to the mouse at 2 hours, 24 hours and 72 hours after the occurrence of burn injury, each time in an amount of 10 mg per kilogram of body weight of the mouse (an amount of 10 mg/kg), and it was checked whether the mouse was alive or dead. The same operation was carried out on 10 mice, and the survival rate of the mice was checked. The horizontal axis of the graph of FIG. 1 represents the number of days (days) after the Pseudomonas aeruginosa infection.
The experiment was carried out in the same manner as in Example 1, except that physiological saline was intraperitoneally administered instead of glycyrrhizin, and the survival rate of the mice was checked.

MBD-1 [4] = test: Quantity-dependency of glycyrrhizin on MBD-1 production ability restoration (Transwell co-culture, ELISA); assay type: cell-based, mouse; conditions: 48 hours
Description: Epidermal keratinocytes (2×10^6 cells/ml) were collected from the skin of a normal mouse. Furthermore, a normal mouse was given a burn injury on its dorsal side, and after 12 hours, Gr-1^+CD11b^+ cells (5×10^5 cells/ml) were collected from the skin tissues around the burn site. Using the medium for keratinocyte culture as a medium, and making glycyrrhizin to be co-present in an amount of 1 μg/ml (Example 6), 10 μg/ml (Example 7), 100 μg/ml (Example 8) or 300 μg/ml (Example 9), the epidermal keratinocytes and the Gr-1^+CD11b^+ cells were cultured in a same Transwell at 37° C. The amount of MBD-1 in the supernatant of the culture fluid after 48 hours from the initiation of culture was measured by ELISA. The results are shown in the semilogarithmic graph of FIG. 8. The experiment was carried out in the same manner as in Examples 6 to 9, except that glycyrrhizin was not made to be co-present, and the amount of MBD-1 in the supernatant of the culture fluid was measured. The results are shown in the bar graph of FIG. 8. […] Furthermore, the two graphs share the vertical axis (the amount of MBD-1).

Pseudomonas aeruginosa [5] = test: Amount of Pseudomonas aeruginosa in blood and spleen homogenate specimens of infected burn mice (colony counting); assay type: in vivo; conditions: 100 CFU, 10 mg/kg i.p. at 2 and 12 hours after infection, 48 hours after infection
Description: A normal mouse was given a burn injury on its dorsal side, and was infected at the burn site with Pseudomonas aeruginosa in an amount of 100 CFU. Subsequently, glycyrrhizin was intraperitoneally administered to the mouse at 2 hours and 12 hours after the infection with Pseudomonas aeruginosa, each time in an amount of 10 mg per kilogram of body weight of the mouse (an amount of 10 mg/kg). Subsequently, after 48 hours from the infection with Pseudomonas aeruginosa, blood and spleen were collected from the mouse, and the amounts of Pseudomonas aeruginosa in the blood specimen and the spleen homogenate specimen were measured by a colony-counting method. The vertical axis of the graph of FIG. 4 represents the amount of Pseudomonas aeruginosa in 1 ml of the specimen (amount of CFU). The experiment was carried out in the same manner as in Example 2, except that physiological saline was intraperitoneally administered instead of glycyrrhizin, and the amounts of Pseudomonas aeruginosa in the blood specimen and the spleen homogenate specimen were measured.

MBD-3 = test: Amount of MBD-3 in culture supernatant of LPS-treated epidermal keratinocytes and/or Gr-1+CD11b+ cells (Transwell, ELISA); assay type: cell-based, mouse; conditions: 10 μg/ml, 48 hours
Description: Epidermal keratinocytes (EK) were collected from the skin of a normal mouse, and a cell solution was prepared to a concentration of 2×10^6 cells/ml using RPMI1640 medium supplemented with 10% inactivated fetal bovine serum. In order to induce MBD-3, the cells were treated with lipopolysaccharides (LPS) in an amount of 1 μg/ml for 6 hours. Furthermore, a normal mouse was given a burn injury on its dorsal side, and after 12 hours, Gr-1^+CD11b^+ cells were collected from the skin tissues around the burn site. A cell solution of the collected cells was prepared to a concentration of 5×10^5 cells/ml using RPMI1640 medium supplemented with 10% inactivated fetal bovine serum. In the co-presence of glycyrrhizin in an amount of 10 μg/ml, the LPS-treated epidermal keratinocytes and the Gr-1^+CD11b^+ cells were cultured in a same Transwell at 37° C. After 48 hours from the initiation of culture, the amount of MBD-3 in the supernatant of the culture fluid was measured by ELISA. The experiment was carried out in the same manner as in Example 5, except that glycyrrhizin was not allowed to be co-present, and the amount of MBD-3 in the supernatant of the culture fluid was measured. The experiment was carried out in the same manner as in Example 5, except that only LPS-treated epidermal keratinocytes (2×10^6 cells/ml) were cultured without allowing glycyrrhizin to be co-present, and the amount of MBD-3 in the supernatant of the culture fluid was measured. The experiment was carried out in the same manner as in Example 5, except that only LPS-treated epidermal keratinocytes (2×10^6 cells/ml) were cultured in the co-presence of glycyrrhizin in an amount of 10 μg/ml, and the amount of MBD-3 in the supernatant of the culture fluid was measured. The experiment was carried out in the same manner as in Example 5, except that only Gr-1^+CD11b^+ cells (5×10^5 cells/ml) were cultured without allowing glycyrrhizin to be co-present, and the amount of MBD-3 in the supernatant of the culture fluid was measured.

MBD-1 [6] = test: Amount of MBD-1 in skin tissue homogenate around the burn site (ELISA); assay type: in vivo; conditions: 10 mg/kg i.p. 2 hours after burn, skin collected 0.5-24 hours after burn
Description: A normal mouse was given a burn injury on its dorsal side, and was intraperitoneally administered with glycyrrhizin in an amount of 10 mg per kg of body weight of the mouse (an amount of 10 mg/kg), 2 hours after the occurrence of burn injury. The skin tissue was collected from the surroundings of the burn site after 0.5 hours, 6 hours, 12 hours, 18 hours and 24 hours from the occurrence of burn injury, and the collected skin tissues were homogenized. The amount of MBD-1 in the homogenate liquid was measured by ELISA. The horizontal axis of the graph of FIG. 5 represents the time (hours) after the occurrence of burn injury. The experiment was carried out in the same manner as in Example 3, except that physiological saline was intraperitoneally administered instead of glycyrrhizin, and the amount of MBD-1 in the homogenate liquid was measured.

CCL2 = CCL2 production by Gr-1+CD11b+ cells (ELISA); assay type: cell-based, mouse; conditions: 10 μg/ml; 48 hours; vs no glycyrrhizin
Description: as §1

Question: How did the “MBD-1 production ability of the epidermal keratinocytes” value (MBD-1 [1]) turn out when “CCL2: chemokine CCL2 produced by known recombinant DNA technology, 5 ng/ml (Reference Example 18)” was run?
Answer: inhibited

Question: CC1(C)[C@@H](O[C@H]2O[C@H](C(=O)O)[C@@H](O)[C@H](O)[C@H]2O[C@@H]2O[C@H](C(=O)O)[C@@H](O)[C@H](O)[C@H]2O)CC[C@]2(C)[C@H]3C(=O)C=C4[C@@H]5C[C@@](C)(C(=O)O)CC[C@]5(C)CC[C@@]4(C)[C@]3(C)CC[C@@H]12 [glycyrrhizin] was tested. Which “IL-10 production ability of Gr-1+CD11b+ cells” value (IL-10) did it give?
Answer: inhibited

Question: What about the “amount of MBD-1 in culture supernatant vs no glycyrrhizin” value (MBD-1 [2]; co-culture of epidermal keratinocytes and Gr-1+CD11b+ cells) of the same molecule?
Answer: larger

Question: What about the “MBD-1 production ability inhibiting effect of Gr-1+CD11b+ cells against epidermal keratinocytes” value (MBD-1 [2]; co-culture) of the same molecule?
Answer: reduced this inhibiting effect

Question: And the “MBD-1 production ability promoting effect against epidermal keratinocytes” value (MBD-1 [2]; epidermal keratinocytes alone)?
Answer: did not have an MBD-1 production ability promoting effect

Question: And the “deaths among the mice (survival)” value (Pseudomonas aeruginosa [3]; 100 CFU P. aeruginosa at burn site, 10 mg/kg i.p. at 2, 24 and 72 hours after burn, up to the 7th day, 10 mice)?
Answer: none of the individuals died

Question: What about the “survival rate compared with mice not administered with glycyrrhizin (physiological saline)” value (Pseudomonas aeruginosa [3]; 100 CFU P. aeruginosa, 10 mg/kg i.p. at 2, 24 and 72 hours, after 2 days and on) of the same molecule?
Answer: markedly high

Question: And the “MBD-1 production ability restoring effect” value (MBD-1 [4]; glycyrrhizin 10 μg/ml (Example 7))?
Answer: particularly excellent

Question: What about the “MBD-1 production ability restoring effect” value (MBD-1 [4]; glycyrrhizin 100 μg/ml (Example 8)) of the same molecule?
Answer: particularly excellent

Question: What about the “MBD-1 production ability restoring effect” value (MBD-1 [4]; glycyrrhizin 300 μg/ml (Example 9)) of the same molecule?
Answer: particularly excellent

Question: What about the “amount of Pseudomonas aeruginosa in the blood specimen vs saline mouse” value (Pseudomonas aeruginosa [5]) of the same molecule?
Answer: markedly reduced

Question: And the “amount of Pseudomonas aeruginosa in the spleen homogenate specimen vs saline mouse” value (Pseudomonas aeruginosa [5])?
Answer: markedly reduced

Question: What about the “MBD-3 production ability promoting effect against LPS-treated epidermal keratinocytes” value (MBD-3; LPS-treated epidermal keratinocytes alone) of the same molecule?
Answer: did not have an MBD-3 production ability promoting effect

Question: What about the “amount of MBD-3 in culture supernatant vs no glycyrrhizin” value (MBD-3; co-culture of LPS-treated epidermal keratinocytes and Gr-1+CD11b+ cells) of the same molecule?
Answer: larger

Question: What about the “MBD-3 production ability inhibiting effect of Gr-1+CD11b+ cells against LPS-treated epidermal keratinocytes” value (MBD-3; co-culture) of the same molecule?
Answer: reduced this inhibiting effect

Question: What about the “amount of MBD-1 in skin tissue homogenate vs saline mouse” value (MBD-1 [6]) of the same molecule?
Answer: larger

Question: What about the “CCL2 production ability of Gr-1+CD11b+ cells” value (CCL2) of the same molecule?
Answer: inhibited

B1: IL-10: interleukin-10 produced by known recombinant DNA technology, 1 ng/ml (Reference Example 19) (protein, UniProt P18893 19-178, looked up)
Interleukin-10: SRGQYSREDNNCTHFPVGQSHMLLELRTAFSQVKTFFQTKDQLDNILLTDSLMQDFKGYLGCQALSEMIQFYLVEVMPQAEKHGPEIKEHLNSLGEKLKTLRMRLRRCHRFLPCENKSKAVEQVKSDFNKLQDQGVYKAMNEFDIFINCIEAYMMIKMKS
Question: For B1, which “MBD-1 production ability of the epidermal keratinocytes” value (MBD-1 [1]) is on record?
Answer: inhibited
